Like-named read-outs stand apart in the source and are kept apart here.
Experiments:
[1] = Single dose crossover pharmacokinetic study in dogs; assay type: in vivo; conditions: for AUC / Cmax: male, dog, plasma, po, single oral (gavage) dose, d3-etoricoxib 2.00 mg/kg, etoricoxib 1.98 mg/kg
Description: A single dose crossover study was conducted to compare the pharmacokinetics of d3-etoricoxib and non-isotopically enriched etoricoxib in dogs. Four male dogs were dosed, and animals received each of the following treatments sequentially, with a minimum of four days washout between doses.
Blood samples were taken at 0.083, 0.25, 0.5, 1, 2, 4, 6, 8, 12, and 24 hours post-dose. Plasma was analyzed for d3-etoricoxib or non-isotopically enriched etoricoxib concentration.

[2] = tested on: human liver microsomes; assay: Metabolic stability with human liver microsomes (formation of M1 / d2-M1 metabolite); assay type: in vitro ADME; conditions: human liver microsomes 0.5 mg/mL, 1 μM, over 60 minutes, NADPH and UDPGA
Description: The metabolic stability of non-isotopically enriched etoricoxib and d3-etoricoxib, with human liver microsomes was evaluated.
Etoricoxib is extensively metabolized in humans with <1% of a dose recovered in urine as the parent drug. The primary pathway for metabolism of etoricoxib in humans is through the production of the methylhydroxy metabolite of etoricoxib (“M1”). Metabolism of etoricoxib involves conversion primarily to the “M1” derivative, mainly (ca. 60%) by CYP3A4, with less contribution by CYPs 1A2, 2C9, 2C19 and 2D6 (ca. 40% collectively). See, e.g., Arcoxia® (etoricoxib) Australian Product Information, available at http://apps.medicines.org.au/files/mkparcox.pdf (last visited Apr. 9, 2021), the contents of which are herein incorporated by reference in their entirety. Production of the “M1” metabolite and d3-etoricoxib (“d2-M1”) was evaluated in this experiment throughout the incubation period.

[3] = target: T1, CYP3A4 (Homo sapiens, UniProt P08684); assay: Metabolic stability in CYP3A4 incubations (formation of methylhydroxy metabolites); assay type: in vitro ADME; parameters: purchased Corning 456202; conditions: for Formation of methylhydroxy metabolite relative to M1 formed from etoricoxib: human recombinant CYP3A4, over time (to 40 min), 1 μM; for Susceptibility to metabolism by CYP3A4 compared with non-isotopically enriched etoricoxib: human recombinant CYP3A4 incubations
Description: The metabolic stability of non-isotopically enriched etoricoxib, d3-etoricoxib, and an alternate deuterated form of etoricoxib, d4-etoricoxib (5-chloro-6′-methyl-3-(4-(methylsulfonyl)phenyl-2,3,5,6-d4)-2,3′-bipyridine, CAS No.: 1131345-14-6), in CYP3A4 incubations was evaluated. d4-Etoricoxib has the chemical structure:
Human recombinant CYP3A4 (Corning, item #456202, lot #9322001) was chosen for the assay conditions as CYP3A4 is the principle enzyme responsible for the metabolism of etoricoxib in humans. Formation of the methylhydroxy metabolites formed from etoricoxib, d3-etoricoxib, and d4-etoricoxib was monitored over time (Table 5, FIGS. 13 and 14).

[4] = humans; cited from earlier work
[5] = target: T1, CYP3A4; conditions: humans; cited from earlier work
[6] = tested on: CYPs 1A2, 2C9, 2C19 and 2D6; conditions: humans; cited from earlier work
[7] = equivalent oral doses, four male dogs
[8] = four male dogs, oral (gavage), 2.00 vs 1.98 mg/kg
[9] = Animal 1001, male dog, read-out: AUC0.5-24 h
[10] = Animal 1001, male dog, read-out: Cmax
[11] = Animal 1002, male dog, read-out: AUC0.5-24 h
[12] = Animal 1002, male dog, read-out: Cmax
[13] = Animal 1003, male dog, read-out: AUC0.5-24 h
[14] = Animal 1003, male dog, read-out: Cmax
[15] = Animal 1004, male dog, read-out: AUC0.5-24 h
[16] = Animal 1004, male dog, read-out: Cmax
[17] = Mean (SD) of four male dogs, read-out: AUC0.5-24 h, Mean (SD)
[18] = Mean (SD) of four male dogs, read-out: Cmax, Mean (SD)

T1 sequence (P08684 whole entry): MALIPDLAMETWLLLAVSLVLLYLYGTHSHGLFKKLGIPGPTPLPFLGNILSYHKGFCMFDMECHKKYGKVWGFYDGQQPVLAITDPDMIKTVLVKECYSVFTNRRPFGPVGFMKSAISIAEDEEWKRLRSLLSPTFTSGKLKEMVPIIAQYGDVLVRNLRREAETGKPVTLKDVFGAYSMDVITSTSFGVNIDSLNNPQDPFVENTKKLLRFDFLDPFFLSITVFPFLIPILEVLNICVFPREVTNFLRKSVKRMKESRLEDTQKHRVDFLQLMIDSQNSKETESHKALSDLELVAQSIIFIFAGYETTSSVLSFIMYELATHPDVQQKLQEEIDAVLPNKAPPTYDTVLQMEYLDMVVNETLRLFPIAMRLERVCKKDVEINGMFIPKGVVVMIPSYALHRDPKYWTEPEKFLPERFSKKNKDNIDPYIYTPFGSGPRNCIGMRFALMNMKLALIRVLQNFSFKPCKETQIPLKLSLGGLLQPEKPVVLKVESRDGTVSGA

SMILES | AUC [1, 9] [ng·h/mL] | Cmax [1, 10] [ng/mL] | AUC [1, 11] [ng·h/mL] | Cmax [1, 12] [ng/mL] | AUC [1, 13] [ng·h/mL] | Cmax [1, 14] [ng/mL] | AUC [1, 15] [ng·h/mL] | Cmax [1, 16] [ng/mL] | AUC [1, 17] [ng·h/mL] | Cmax [1, 18] [ng/mL] | Formation of methylhydroxy metabolite relative to M1 formed from etoricoxib [3] | Susceptibility to metabolism by CYP3A4 compared with non-isotopically enriched etoricoxib [3] | further results
[2H]C([2H])([2H])c1ccc(-c2ncc(Cl)cc2-c2ccc(S(C)(=O)=O)cc2)cn1 [d3-etoricoxib, 5-chloro-6′-(methyl-d3)-3-(4-(methylsulfonyl)phenyl)-2,3′-bipyridine] | 516 | 628 | 1020 | 791 | 1260 | 593 | 658 | 317 | 865 | 604 | about six-fold lower | substantially different | Cmax relative to non-isotopically enriched etoricoxib [1, 7]: higher Cmax; Metabolism in dogs relative to non-isotopically enriched etoricoxib [1, 7]: substantially resistant to metabolism; Total exposure (AUC) relative to non-isotopically enriched etoricoxib [1, 7]: higher total exposure; AUC0.5-24 h, Average % delta d3-etoricoxib vs etoricoxib [1, 8]: +48.6%; Cmax, Average % delta d3-etoricoxib vs etoricoxib [1, 8]: +54.9%; Amount of d2-M1 metabolite formed relative to M1 formed from etoricoxib [2]: approximately three-fold less
[2H]c1c([2H])c(S(C)(=O)=O)c([2H])c([2H])c1-c1cc(Cl)cnc1-c1ccc(C)nc1 [d4-etoricoxib, 5-chloro-6′-methyl-3-(4-(methylsulfonyl)phenyl-2,3,5,6-d4)-2,3′-bipyridine, reference compound] | – | – | – | – | – | – | – | – | – | – | similar | almost identical | –
Cc1ccc(-c2ncc(Cl)cc2-c2ccc(S(C)(=O)=O)cc2)cn1 [etoricoxib] | 342 | 259 | 606 | 426 | 1130 | 670 | 336 | 206 | 582 | 390 | – | – | Dose recovered in urine as the parent drug [4]: < 1%; Share of conversion to the M1 derivative by CYP3A4 [5]: ca. 60%; Share of conversion to the M1 derivative by CYPs 1A2, 2C9, 2C19 and 2D6 collectively [6]: ca. 40%

Source: patent US11858909B2, “Deuterated etoricoxib, methods of manufacture, and use thereof” (Tremeau Pharmaceuticals, Inc., priority 2021, dated 2024)
